This is an account of results in patent publication US11147781B2, “Methods for alleviating statin myopathy” (priority 2014, dated 2021).

Data set [1] relates to statin-induced abnormal liver function. Put plainly: Treatment of statin-induced abnormal liver function using HMB. The class given is in vivo, human. Conditions: within 3 months of beginning HMB treatment. As to the method: Elevated liver function tests (LFTs) are common in statin users. The presence of elevated transaminases, commonly the transaminases alanine transaminase (ALT or SGPT) and aspartate transaminase (AST or SGOT), are indicators of liver damage. Terms for this condition include transaminasemia and transaminitis, Normal ranges for both ALT and AST are 8-40 U/L with mild transaminesemia noted to the upward numerical limit of 250 U/L. Here, HMB is administered to normalize abnormal liver function tests and reverse transaminitis. […] Once enrolled, initiate the following steps: • 1. Initiate calcium HMB monohydrate, 2 g twice daily or HMB free acid (gel form), 1 g three times daily; • 2. Continue statin agent with no dose change; • 3. Repeat liver panel in 3 months and compare to baseline.

For data set [2], the system named is rosuvastatin-induced myalgia and myopathy. Put plainly: Initial assessment of HMB reversal of statin myalgia (single volunteer). The data set is classed as in vivo, human. The procedure:
A healthy, fully informed and consenting adult volunteer with severe rosuvastatin-induced myalgia and myopathy and pre-statin LDL of 260 was administered 1 gram HMB three times a day (3 grams/day total) while rosuvastatin therapy was continued. Within 72 hours of the initial HMB administration, statin myalgia/myopathy fully subsided. During brief intervals where HMB treatment was discontinued (i.e., unintentionally skipped doses), the subject reported a return of myalgia, which again subsided upon reinstatement of HMB treatment.

The test system of data set [3] is statin-induced short-term memory loss. Put plainly: Treatment of statin-induced short-term memory loss with HMB. The data set is classed as in vivo, human. Conditions: within two months of HMB treatment, statin continued. The text has this:
HMB administration is used to treat short-term memory loss, an unusual side effect resulting from statin administration. […] Protocol: Patient describes short term memory loss after starting statin. Initiate the following steps: • 1. Assess memory loss with standardized neuro-psychometric testing as baseline status; • 2. Initiate calcium HMB monohydrate, 2 g twice daily; or calcium free acid gel, 1 g three times daily; • 3. Continue statin therapy with no dose change; • 4. Obtain baseline lab (lipid panel, CPK, liver function/metabolic profile) and repeat in 12 weeks; • 5. Reassess memory status in 12 weeks repeating psycho-metric testing and comparing to baseline study.

For data set [4] the following is noted: cited from earlier work.
In data set [5] the test system is statin-induced glucose intolerance. Nature of the data set: Treatment of statin-induced glucose intolerance using HMB. The class given is in vivo, human. The text has this:
Glucose intolerance with hyperglycemia/increased risk for diabetes, probably related to insulin resistance, has been reported in statin users, especially lipophilic statins such as […], less so in hydrophilic statins such as pravastatin. Here, HMB administration is used to treat statin-related glucose intolerance. Protocol: type 1, 1.5, and 2 diabetics with hemoglobin A1C at or exceeding 6.5% are eligible; also eligible are hyperglycemic/increased risk for diabetes patients not on diabetic treatment but with a hemoglobin A1C at or exceeding 5.7%; patients with critical value fasting blood glucose and hemoglobin A1C levels are excluded. Once enrolled, the following steps are initiated: • 1. Continue statin and diabetic medications with dosages unchanged; • 2. Initiate calcium HMB monohydrate, 2 g twice daily, or HMB free acid (gel form), 1 g three times daily; • 3. Repeat fasting blood glucose and hemoglobin A1C in 3 weeks and 6 weeks;

Data set [6] in a line: No Observed Adverse Effect Level (NOAEL) for HMB oral ingestion in rats. The data set is classed as in vivo. The procedure:
This is an estimated human equivalent of 558 mg/kg and 665 mg/kg for men and women, respectively; assuming a body weight of 150 lbs equates to 38 g (males) and 45 g (females). […] Overall, standard doses of HMB appear to be well-tolerated over long periods of time.

For data set [7] the following is noted: cited from earlier work. The source holds these as a separate data set.
Data set [8] concerns patients with statin-induced myopathy (SIM). The data set is classed as in vivo, human. As to the method:
A clinical study was conducted to evaluate the effects of HMB on patients with statin-induced myopathy (SIM). A total of eighteen patients were evaluated for the study with informed written consent obtained. Of the eighteen patients, fourteen (14) ultimately qualified as having true statin myalgia and were enrolled in the study. All patients enrolled were under the care of a board certified cardiologist.
A summary of the enrolled patients and their outcomes is as follows: • 1. All 14 had type 2a or mixed hyperlipidemia. • 2. All 14 had been treated with multiple statin agents, in each case withdrawing from the statin agent due to myalgia/myopathy. • 3. Of the 14 patients enrolled, 4 had elevated CPKs (creatine phosphokinase, a biomarker for myositis/rhabdomyolysis) secondary to SIM. • 4. Five of the 14 patients had undergone prior percutaneous coronary intervention with stents. • 5. One of the 14 patients had undergone prior coronary bypass surgery. • 6. Four of the 14 patients had angiographically documented moderate coronary artery disease not requiring percutaneous coronary intervention (PCI)/coronary bypass. • 7. Four of the 18 patients were disqualified due to the following: • Patient's leg myalgia was secondary to angiographically proven peripheral vascular disease, not SIM and symptoms were consistent with this diagnosis. • Patient's unilateral leg pain was secondary to neuropathy, not SIM. • Patient complained of GI upset on combined statin+3-hydroxy 3-methybutyrate and medication was discontinued. […] All 14 qualified patients remained on combination statin (in some cases with Zetia to achieve target) plus HMB therapy after the initial duration of the study. As noted, of those who had previously discontinued statin therapy, all had been tried on multiple statin agents without success. • 9. Follow up was conducted with all patients including out-patient visits and phone conversation. • 10.
The free acid form was used in one patient who experienced major CPK elevations (900-1000 IU/L range) and disabling myalgia on statins.
For this study, patients were evaluated using multiple laboratories with variable lab normal ranges, which are included. In the patient population as a whole, the full spectrum of SIM is presented, including statin myalgia […] CPK elevation (myositis or rhabdomyolysis depending on severity), elevation of CPK without myalgia, post-statin elevation of CPK with and without pain, post-statin myalgia without CPK elevation, and, finally, statin-induced muscle weakness without myalgia. Also represented were other statin-induced side effects such as short-term memory loss and glucose intolerance.

Data set [9] relates to statin-related cumulative trauma disorder. Nature of the data set: Treatment of statin-related cumulative trauma disorder using HMB. The data set is classed as in vivo, human. The conditions noted are these: within 6 weeks of beginning HMB treatment. The text has this: Cumulative trauma disorder, also known as chronic overuse syndrome, is characterized by muscle damage due to performing repetitive activities over time. Statin users are particularly vulnerable to cumulative trauma disorder due to impaired ability to heal chronically micro-traumatized muscle. Here, HMB is used to treat cumulative trauma disorder. Protocol: Patients are enrolled if they qualify with symptoms that include chronic muscle weakness and pain complemented by an occupation or lifestyle lending itself to chronic overuse syndrome (e.g., construction workers, etc.). All patients are currently on statins. Initial documentation of strength levels and pain severity are required. Pain is evaluated using the Verbal Numerical Rating Scale (VNRS). Strength is measured using the Manual Muscle Testing/5-point scale. Additionally, grip strength is measured using a dynamometer. Once enrolled, the following steps are initiated: • 1. Obtain baseline lab including lipid panel and CPK-MM levels; • 2. Continue statin with dose unchanged; • 3. Continue repetitive activity in question at the same level of intensity; • 4. […]

The structures appear in SMILES notation. Some results are limits rather than exact numbers.

As to `CC(C)(O)CC(=O)O` [HMB, β-hydroxy β-methylbutyrate], in data set [1], the ALT/SGPT entry is “less than 40 U/L” and the AST/SGOT entry was “less than 40 U/L”. For the same compound, the “time until statin myalgia/myopathy fully subsided” value in data set [2] (1 gram HMB three times a day, rosuvastatin continued, one volunteer) is not above 72 h. Besides, the “benefit of increased HMB dosage” value in data set [2] (increase to 6 grams/day) is listed as “no additional benefit”. Moreover, the short-term memory loss result in data set [3] was “reversal of some or all short-term memory loss”. In addition, in [4] (3 g HMB daily for up to 8 weeks, youth and older persons), the “toxicological parameters in serum” value is on record as “failed to alter toxicological parameters in serum”. Further, the “safety on long administration” value in data set [4] (3 g daily, one year of administration) was “safe”. Besides, the “toxic effects on serum parameters” value in [4] (approximately 6 g HMB daily (78 mg/kg) for one month, untrained young males subject to exercise) is “did not show any toxic effects”. Also, the tolerability entry in data set [4] (standard doses, long periods of time) is listed as “well-tolerated”. The fasting blood glucose result in data set [5] (diabetic patients, within 6 weeks) was “less than 130 mg %”. Further, the “hemoglobin A1C” value in data set [5] (diabetics, within 6 weeks of beginning HMB treatment) was “below 6.5%”. The fasting blood glucose entry in data set [5] (hyperglycemic/non-diabetic management patients, within 6 weeks) is “less than 100 mg %”. The “hemoglobin A1C” value in data set [5] (hyperglycemics on dietary management, within 6 weeks) is listed as less than 5.7%. The “human equivalent of NOAEL assuming a body weight of 150 lbs” value in data set [6] (females) was 45 g. In data set [6] (males), the “human equivalent of NOAEL assuming a body weight of 150 lbs” value was found to be 38 g. Besides, in data set [7] (in vivo), the half-life entry was “relatively short” and the “time to peak levels” value was “quickly”. Further, the “area under blood level curve” value in data set [7] (when ingested with glucose) was “reduced”. Besides, in [8] (Patient F-6, atorvastatin 40 mg + Zetia 10 mg + 2 g BID, 2-month follow-up), the “short term memory loss” value was “mostly resolved”. The “response of SIM symptoms” value in [8] (all 14 qualifying patients, combination statin plus HMB) was “complete resolution of SIM symptoms”. In data set [8] (the disqualified patient with GI upset, after HMB treatment), the SIM-related myalgia result was “resolved completely”. For the same compound, in data set [9], the pain severity result is “reduced pain severity” and the strength levels entry is reported as “increased strength levels”.
